Assay results from patent publication US9000043B2, “Phenoxyethoxy compounds” (Eli Lilly and Company, priority 2013, dated 2015).

What was measured:
[1] = molecular target: rat EP4 (Rattus norvegicus (Rat), UniProt P43114); assay: In vitro rat EP4 functional antagonist activity (PGE2-stimulated cAMP, HTRF); type: cell-based; details: HEK293 cells expressing rat EP4, PGE2 at EC80, n=1; read-out: IC50 measured at rat EP4 (inhibition of PGE2-stimulated cAMP)
Procedure: Rat EP4 cDNA (Genebank Accession# NM_03276) is cloned into pcDNA 3.1 vector and subsequently transfected in HEK293 cells for receptor expression. Rat EP4 stable clone is scaled up and then frozen down as cell bank for future compounds screening. To test EP4 antagonist compounds in rEP4 cells, thaw the frozen cells and then resuspend cells in cAMP assay buffer. The cAMP buffer is made by HBSS without Phenol Red (Hyclone, SH30268) supplemented with 20 mM HEPES (Hyclone, SH30237), 0.1% BSA (Gibco, 15260) and 125 μM IBMX (Sigma, 15879). The cells are plated into 96-well half area flat-bottom polystyrene black plates (Costar 3694). Compounds are serial diluted with DMSO to give 10-point concentration response curves. Then diluted compounds are added into cAMP assay buffer which contains PGE2 (Cayman 14010, in a concentration predetermined to produce an EC80) at ratio of DMSO/buffer at 1/100. The cells are treated with compounds in the presence of PGE2 (EC80 concentration) for 30 minutes at room temperature. The cAMP levels generated from the cells are quantified by a cAMP HTRF assay kit (Cisbio 62AM4PEC). The plates are read on an EnVision plate reader using HTRF optimized protocol (PerkinElmer). IC50s are calculated using Graphpad Prism (v. 4) nonlinear regression, sigmoidal dose response curve fitting.

[2] = molecular target: T1, human EP4 (Homo sapiens (Human), UniProt P35408); assay: In vitro human EP4 functional antagonist activity (PGE2-stimulated cAMP, HTRF); type: cell-based; details: HEK293 cells expressing human EP4, PGE2 at EC80, n=5; read-out: IC50 measured at human EP4 (inhibition of PGE2-stimulated cAMP production)
Procedure: Assays are conducted in recombinant HEK293 cells stably expressing human EP4 receptor. The cell lines are maintained by culturing in DMEM with high glucose and pyridoxine hydrochloride (Invitrogen) supplemented with 10% fetal bovine serum (FBS), 1 mM sodium pyruvate, 10 mM HEPES, 500 μg/mL geneticin and 2 mM L-glutamine. Confluent cultures are grown at 37° C. in an atmosphere containing 5% CO2. Cells are harvested using 2.5% Trypsin-EDTA, suspended in freeze media (FBS with 6% DMSO) at 10^7 cells/mL and aliquots are stored in liquid nitrogen. Just before assay, cells are thawed in DMEM, centrifuged, and resuspended in cAMP buffer.
The inhibition of PGE2-stimulated cAMP production by EP4 antagonists is measured using HTRF (Cisbio catalogue #62AM4PEB). An aliquot equivalent to 4000 cells is incubated with 50 μL cAMP assay buffer containing PGE2 in a concentration predetermined to produce an EC80 (0.188 nM PGE2 from Sigma, catalog # P5640-10 mg) and EP4 antagonists at room temperature for 20 minutes. cAMP assay buffer contains 500 mL HBSS, 0.1% BSA, 20 mM HEPES and 200 μM IBMX (Sigma 15879). […] The HTRF signal is detected using an EnVision® plate reader (Perkin-Elmer) to calculate the ratio of fluorescence at 665 nm to that at 620 nm. […]
Target sequence in this assay (P35408 whole entry): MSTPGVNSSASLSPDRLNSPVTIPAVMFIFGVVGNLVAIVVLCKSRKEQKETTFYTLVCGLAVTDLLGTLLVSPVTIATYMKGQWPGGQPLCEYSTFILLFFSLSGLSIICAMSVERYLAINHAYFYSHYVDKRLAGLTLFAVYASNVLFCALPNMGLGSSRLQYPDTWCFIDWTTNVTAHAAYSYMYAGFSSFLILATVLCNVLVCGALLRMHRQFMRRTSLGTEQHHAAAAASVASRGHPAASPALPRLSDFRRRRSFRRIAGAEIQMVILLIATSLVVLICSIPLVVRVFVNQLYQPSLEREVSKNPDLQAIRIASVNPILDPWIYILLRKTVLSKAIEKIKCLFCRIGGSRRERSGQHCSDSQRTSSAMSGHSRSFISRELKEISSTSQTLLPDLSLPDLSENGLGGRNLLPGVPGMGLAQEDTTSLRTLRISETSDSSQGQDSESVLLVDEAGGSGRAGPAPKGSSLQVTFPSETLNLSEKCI

[3] = molecular target: T1, human EP4; assay: In vitro binding to human EP4 ([3H]-PGE2 displacement, membranes); details: HEK293 membranes, [3H]-PGE2, n = 3; read-out: hEP4, Ki
Procedure: (§1) hEP1 and hEP4 membranes are prepared from recombinant HEK293 cells stably expressing the human EP1 (Genbank accession number AY275470) or EP4 (Genbank accession number AY429109) receptors. hEP2 and hEP3 membranes are prepared from HEK293 cells transiently transfected with EP2 (Genbank accession number AY275471) or EP3 (isoform VI: Genbank accession number AY429108) receptor plasmids. Frozen cell pellets are homogenized in homogenization buffer using a Teflon/glass homogenizer. Membrane protein is aliquoted and quick frozen on dry ice prior to storage at −80° C. Homogenization buffer contained 10 mM Tris-HCl, pH 7.4, 250 mM sucrose, 1 mM EDTA, 0.3 mM indomethacin and plus Complete™, with EDTA, obtained from Roche Molecular Biochemicals (Catalog Number 1 697 498).
(§2) Kd values for [3]H-PGE2 binding to each receptor are determined by saturation binding studies or homologous competition. […] Nonspecific binding is calculated by comparing binding in the presence and absence of 2 μM of PGE2. The membranes are harvested by filtration (TomTek harvester), washed 4 times with cold buffer (10 mM MES pH 6.0 with KOH, 10 mM MgCl2), dried in a 60° C. oven, and the radioactivity is quantified as counts per minute (CPM) using a TopCount detector. Percent specific binding is calculated as the percent of the binding in the absence of any inhibitor, corrected for binding in the presence of 2 μM of PGE2. […]
Target sequence in this assay (P35408 whole entry, looked up): as the sequence (P35408 whole entry) above

[4] = molecular target: human EP1 (Homo sapiens (Human), UniProt P34995); assay: In vitro binding to human EP1 ([3H]-PGE2 displacement, membranes); details: HEK293 membranes, [3H]-PGE2, n = 1; read-out: hEP1, Ki
Sequence of human EP1 (P34995 whole entry): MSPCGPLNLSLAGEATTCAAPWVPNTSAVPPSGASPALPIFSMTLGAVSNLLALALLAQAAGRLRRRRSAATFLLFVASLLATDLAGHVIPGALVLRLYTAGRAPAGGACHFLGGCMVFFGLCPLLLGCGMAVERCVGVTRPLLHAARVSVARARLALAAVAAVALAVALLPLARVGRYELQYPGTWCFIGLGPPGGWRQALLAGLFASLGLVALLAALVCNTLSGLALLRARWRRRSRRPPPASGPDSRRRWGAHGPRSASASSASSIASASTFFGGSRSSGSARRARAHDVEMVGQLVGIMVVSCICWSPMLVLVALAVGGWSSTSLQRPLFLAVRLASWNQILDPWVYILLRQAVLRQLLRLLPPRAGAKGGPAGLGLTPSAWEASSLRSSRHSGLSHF
Procedure: as §1, §2

[5] = molecular target: human EP3 (isoform VI) (Homo sapiens (Human), UniProt P43115); assay: In vitro binding to human EP3 ([3H]-PGE2 displacement, membranes); details: HEK293 membranes, [3H]-PGE2, n = 1; read-out: hEP3, Ki
Sequence of human EP3 (isoform VI) (P43115 other isoform, or with tags, fused parts or gaps): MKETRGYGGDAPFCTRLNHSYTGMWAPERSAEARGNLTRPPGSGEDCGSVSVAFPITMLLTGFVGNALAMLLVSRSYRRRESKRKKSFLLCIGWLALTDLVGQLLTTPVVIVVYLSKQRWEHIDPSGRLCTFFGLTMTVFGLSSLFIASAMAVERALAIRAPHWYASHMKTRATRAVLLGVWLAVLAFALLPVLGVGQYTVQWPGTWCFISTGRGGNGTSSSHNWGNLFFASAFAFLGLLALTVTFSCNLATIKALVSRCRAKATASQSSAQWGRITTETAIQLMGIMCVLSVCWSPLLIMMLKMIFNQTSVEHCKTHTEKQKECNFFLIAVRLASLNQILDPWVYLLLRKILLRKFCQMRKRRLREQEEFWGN
Procedure: as §1, §2

[6] = molecular target: human EP2 (Homo sapiens (Human), UniProt P43116); assay: In vitro binding to human EP2 ([3H]-PGE2 displacement, membranes); details: HEK293 membranes, [3H]-PGE2, n = 2; read-out: hEP2, Ki
Sequence of human EP2 (P43116 whole entry): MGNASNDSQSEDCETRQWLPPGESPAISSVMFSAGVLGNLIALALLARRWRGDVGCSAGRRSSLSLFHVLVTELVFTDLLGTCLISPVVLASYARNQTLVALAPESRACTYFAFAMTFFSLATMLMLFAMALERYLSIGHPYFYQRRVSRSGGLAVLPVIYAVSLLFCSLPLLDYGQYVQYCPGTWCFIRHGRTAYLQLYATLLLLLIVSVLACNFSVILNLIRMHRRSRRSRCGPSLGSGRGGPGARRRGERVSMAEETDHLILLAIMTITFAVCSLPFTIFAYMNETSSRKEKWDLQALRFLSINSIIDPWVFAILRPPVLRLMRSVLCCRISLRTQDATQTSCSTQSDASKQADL
Procedure: as §1, §2

[7] = molecular target: T1, human EP4; assay: In vitro antagonist activity in human whole blood (reversal of PGE2 inhibition of LPS-induced TNFα production); type: cell-based; details: LPS 10 μg/mL with 10 nM PGE2, geometric mean±SD, n=11, read-out: IC50 in human blood TNFα induction assay
Excerpt: The inhibitory effects of PGE2 on LPS-induced TNFα production from macrophages/monocytes are believed to be mediated by EP4 receptors (See Murase, A., et al., Life Sciences, 82:226-232 (2008)). The ability of the compound of Example 1 to reverse the inhibitory effect of PGE2 on LPS-induced TNFα production in human whole blood is an indicia of functional activity.
Blood is collected from normal volunteer donors into sodium heparin vacutainer tubes. Donors have not taken NSAIDs or celecoxib within 48 hours or glucocorticoids within two weeks prior to the donation. All tubes/donor are pooled into 50 mL Falcon conical centrifuge tubes and 98 μL/well is distributed into 96-well tissue culture plates (Falcon 3072). […] TNFα levels in 2 μL plasma are quantified by a commercially available enzyme immunoassay (R&D Systems DY210), using Immulon 4 HBX plates (Thermo 3855) and 3,3′,5,5′ tetramethylbiphenyl-4,4′-diamine substrate (KPL 50-76-03). The plates are read at A450-A650 on a plate reader (Molecular Devices Versamax) using SOFTmaxPRO (v. 4.3.1) software. IC50s are calculated using Graphpad Prism (v. 4) nonlinear regression, with sigmoidal dose response curve fitting. Results are expressed as the geometric mean±standard deviation; n=number of independent determinations.
Target sequence in this assay (P35408 whole entry, looked up): as the sequence (P35408 whole entry) above

Sequence of rat EP4 (P43114 whole entry): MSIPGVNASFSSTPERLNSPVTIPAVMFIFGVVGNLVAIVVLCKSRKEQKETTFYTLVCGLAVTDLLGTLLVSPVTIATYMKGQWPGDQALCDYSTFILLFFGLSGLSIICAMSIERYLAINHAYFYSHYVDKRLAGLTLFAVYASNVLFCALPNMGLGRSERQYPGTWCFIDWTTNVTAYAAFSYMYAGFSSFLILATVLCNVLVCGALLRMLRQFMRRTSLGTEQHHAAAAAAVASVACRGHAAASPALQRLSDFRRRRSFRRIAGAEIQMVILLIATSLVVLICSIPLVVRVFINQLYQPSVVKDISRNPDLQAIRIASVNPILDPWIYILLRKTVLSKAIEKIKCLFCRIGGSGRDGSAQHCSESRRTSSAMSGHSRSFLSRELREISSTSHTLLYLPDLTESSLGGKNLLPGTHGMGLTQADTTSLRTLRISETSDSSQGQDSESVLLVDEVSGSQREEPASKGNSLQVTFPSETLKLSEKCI

IC50 [1]: 2 nM
IC50 [2]: 2.2 ± 1.7 nM
Ki [3]: 0.45 ± 0.26 nM
Ki [4]: > 17400 nM
Ki [5]: > 12700 nM
Ki [6]: 261 ± 108 nM
IC50 [7]: 20 ± 24 nM
Compound: CC(C)[C@@H](OCCOc1ccccc1)C(=O)N[C@@H](C)c1ccc(C(=O)O)cc1 [Example 1, 4-[(1S)-1-[[(2R)-3-methyl-2-(2-phenoxyethoxy)butanoyl]amino]ethyl]benzoic acid]
